From the NIST ThermoML archive (doi:10.1021/je1000878)
Numbers after ± are expanded uncertainties.

Experiment: cn = amount concentration of the nth substance listed, in mol/dm3
Conditions: 101.3 kPa, Liquid, c1 = 2

SMILES	viscosity (298.15 K)	viscosity (303.15 K)	viscosity (308.15 K)	viscosity (313.15 K)	viscosity (318.15 K)	viscosity (323.15 K)	viscosity (328.15 K)
[Cl-].[Na+] [sodium chloride] + O	1.085 ± 0.014 mPa·s	0.9761 ± 0.013 mPa·s	0.8816 ± 0.012 mPa·s	0.8069 ± 0.011 mPa·s	0.7426 ± 0.01 mPa·s	0.676 ± 0.0095 mPa·s	0.6257 ± 0.0088 mPa·s
O=[N+]([O-])[O-].[Na+] [sodium nitrate] + O	1.036 ± 0.014 mPa·s	0.9367 ± 0.013 mPa·s	0.8519 ± 0.012 mPa·s	0.7777 ± 0.011 mPa·s	0.7167 ± 0.0099 mPa·s	0.6559 ± 0.0092 mPa·s	0.6043 ± 0.0086 mPa·s
